# Where a name gives a salt, the structure may show the parent alone.
# Key:
# [1] = Salt preparation: isolation of solid salts of the pyrrolidine compound; type: physicochemical; details: acid plus free base in IPA, filtration, MTBE
# [2] = Chemical stability by HPLC; type: physicochemical
# Procedure: In addition, the solutions before spraying and the spray dried product were analyzed for purity by HPLC using the following method. A Waters Symmetry C18 (3.0×150 mm, 3.5 um) column was used. […] Column temperature was 60° C., and the detection wavelength was 210 nm. The injection volume was 15 μL; flow rate was 1.0 mL/minute for a run time of 70 minutes. The gradient was as follows: Chemical Stability. Chemical stability was determined using HPLC. […] The chemical stability of the tartrate salt and the free base was also determined after one and three months at 25° C., 40° C. and 60° C.
# [3] = Chemical stability by HPLC; type: physicochemical; details: 45% RH for two months
# [4] = Physical stability in humidity chambers
# Source text: Physical Stability in Humidity Chambers. […] Samples were weighed hourly at first, and then on daily intervals.
# 12 Month Stability Study = type: physicochemical; design: Water: unit not given beside the values; details: for decomposition on storage: 25° C.
# [5] = 3 months at 40° C., listed as Tartrate
# [6] = 12 months, T = 25° C., RH = 60%
compound,measurement,setting,value
O=C(O)[C@@H](O)[C@H](O)C(=O)O [D-tartrate],Comments (outcome of salt preparation),[1]; listed as D-Tartaric Acid,Good filterable solid
"O=C(CN[C@@H]1CCNC1)N1CCC[C@H]1B(O)O [Free Base, (2R)-1-{7-[(9R)-pyrrolidin-9-ylamino]-acetyl}-pyrrolidine-2-boronic acid]",Assay (%),[2]; 1 month at 40° C.,97%
same,Total Impurities (%),[2]; 1 month at 40° C.,15.4%
same,Assay (%),[2]; 3 months at 40° C.,50%
same,Total Impurities (%),[2]; 3 months at 40° C.,29.6%
same,Assay (%),[2]; Initial,96%
same,Total Impurities (%),[2]; Initial,7.6%
"O=C(CN[C@@H]1CCNC1)N1CCC[C@H]1B(O)O [L-tartrate salt, (2R)-1-{7-[(9R)-pyrrolidin-9-ylamino]-acetyl}-pyrrolidine-2-boronic acid]",change in the purity (HPLC),[3],Little or no change
same,Assay (%),[2]; 1 month at 60° C.,100%
same,Total Impurities (%),[2]; 1 month at 60° C.,5.8%
same,Assay (%),[2]; 3 months at 25° C.,99%
same,Total Impurities (%),[2]; 3 months at 25° C.,5.7%
same,Assay (%),[2]; [5],97%
same,Total Impurities (%),[2]; [5],5.9%
same,Assay (%),[2]; 3 months at 60° C.,92%
same,Total Impurities (%),[2]; 3 months at 60° C.,7.4%
same,Assay (%),"[2]; Initial, listed as Tartrate",99%
same,Total Impurities (%),"[2]; Initial, listed as Tartrate",6.5%
same,solubility in water and alcohols,,> 2000 mg/mL
same,hygroscopicity,[4],moderately hygroscopic
same,processability of the solid,[4]; 63% relative humidity and room temperature for two months,remained a processable solid
same,physical behaviour of the solid at ambient conditions,[4]; ambient conditions,remains a processable solid
same,flow properties,"[4]; open container, room temperature, 45% RH, two months",maintained good flow properties
same,processability of the solid,"[4]; several days at ambient temperature, relative humidity of 75%",remained a processable solid
same,Assay (HPLC),"12 Month Stability Study; 1 month, T = 5° C., RH = N/A",105.7
same,Purity (HPLC),"12 Month Stability Study; 1 month, T = 5° C., RH = N/A",98.1
same,Water,"12 Month Stability Study; 1 month, T = 5° C., RH = N/A",9.8
same,Assay (HPLC),"12 Month Stability Study; 1 month, T = 25° C., RH = 60%",105.7
same,Purity (HPLC),"12 Month Stability Study; 1 month, T = 25° C., RH = 60%",98.1
same,Water,"12 Month Stability Study; 1 month, T = 25° C., RH = 60%",9.9
same,Assay (HPLC),"12 Month Stability Study; 1 month, T = 40° C., RH = 75%",106.0
same,Purity (HPLC),"12 Month Stability Study; 1 month, T = 40° C., RH = 75%",98.2
same,Water,"12 Month Stability Study; 1 month, T = 40° C., RH = 75%",10.0
same,Assay (HPLC),"12 Month Stability Study; 3 months, T = 5° C., RH = N/A",106.2
same,Purity (HPLC),"12 Month Stability Study; 3 months, T = 5° C., RH = N/A",98.0
same,Water,"12 Month Stability Study; 3 months, T = 5° C., RH = N/A",9.6
same,Assay (HPLC),"12 Month Stability Study; 3 months, T = 25° C., RH = 60%",106.7
same,Purity (HPLC),"12 Month Stability Study; 3 months, T = 25° C., RH = 60%",98.1
same,Water,"12 Month Stability Study; 3 months, T = 25° C., RH = 60%",9.4
same,Assay (HPLC),"12 Month Stability Study; 3 months, T = 40° C., RH = 75%",105.3
same,Purity (HPLC),"12 Month Stability Study; 3 months, T = 40° C., RH = 75%",97.9
same,Water,"12 Month Stability Study; 3 months, T = 40° C., RH = 75%",9.2
same,decomposition on storage,12 Month Stability Study; 6 months at 75% RH,no detectable decomposition
same,Assay (HPLC),"12 Month Stability Study; 6 months, T = 5° C., RH = N/A",104.6
same,Purity (HPLC),"12 Month Stability Study; 6 months, T = 5° C., RH = N/A",97.9
same,Water,"12 Month Stability Study; 6 months, T = 5° C., RH = N/A",8.9
same,Assay (HPLC),"12 Month Stability Study; 6 months, T = 25° C., RH = 60%",105.9
same,Purity (HPLC),"12 Month Stability Study; 6 months, T = 25° C., RH = 60%",97.9
same,Water,"12 Month Stability Study; 6 months, T = 25° C., RH = 60%",9.3
same,Assay (HPLC),"12 Month Stability Study; 6 months, T = 40° C., RH = 75%",105.6
same,Purity (HPLC),"12 Month Stability Study; 6 months, T = 40° C., RH = 75%",97.7
same,Water,"12 Month Stability Study; 6 months, T = 40° C., RH = 75%",9.5
same,Assay (HPLC),"12 Month Stability Study; 9 months, T = 5° C., RH = N/A",106.7
same,Purity (HPLC),"12 Month Stability Study; 9 months, T = 5° C., RH = N/A",97.8
same,Water,"12 Month Stability Study; 9 months, T = 5° C., RH = N/A",9.1
same,Assay (HPLC),"12 Month Stability Study; 9 months, T = 25° C., RH = 60%",107.3
same,Purity (HPLC),"12 Month Stability Study; 9 months, T = 25° C., RH = 60%",97.8
same,Water,"12 Month Stability Study; 9 months, T = 25° C., RH = 60%",9.0
same,decomposition on storage,12 Month Stability Study; 12 months at 60% RH,no detectable decomposition
same,Assay (HPLC),"12 Month Stability Study; 12 months, T = 5° C., RH = N/A",107.8
same,Purity (HPLC),"12 Month Stability Study; 12 months, T = 5° C., RH = N/A",98.0
same,Water,"12 Month Stability Study; 12 months, T = 5° C., RH = N/A",9.3
same,Assay (HPLC),12 Month Stability Study; [6],107.7
same,Purity (HPLC),12 Month Stability Study; [6],97.9
same,Water,12 Month Stability Study; [6],9.3
same,change in chemical purity,"12 Month Stability Study; any of the conditions tested, 12 month study",substantially no change
same,Assay (HPLC),12 Month Stability Study; time = 0,105.1
same,Purity (HPLC),12 Month Stability Study; time = 0,98.3
same,Water,12 Month Stability Study; time = 0,10.4
citrate,Comments (outcome of salt preparation),[1],Good filterable solid
same,stability at 63% RH,[4]; 63% RH,stable
same,stability when submitted to 75% relative humidity,[4]; 75% RH,not stable

# — US8299271B2, “Solid tartrate salts of DPP-IV inhibitors” (priority 2006, dated 2012)
